System: tobacco budworm (Heliothis virescens [Fabricius])
Experiment: surface-treated diet test against the tobacco budworm
Assay type: in vivo
Conditions: tobacco budworm second instar larvae, surface-treated diet, 0.25 millimoles of candidate insecticide on the surface of the diet, five-day exposure; for Percent Mortality: compared to total number of insects infested; for Percent Growth Inhibition: inhibition of insect weight relative to untreated controls
Outline: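 Wheat germ artificial diet surface-treated with 40 µL of 50 mM DMSO stock diluted 1:7 in 1:1 water/acetone (0.25 millimolar on diet), or sub-multiples for rate tests. One second-instar larva per well, 25° C, 60% RH, 5 days; percent weight inhibition vs DMSO controls and percent mortality.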

SMILES | Percent Mortality | Percent Growth Inhibition
O=C(Nc1ccc(C(F)(F)F)cc1)OC(c1ccc(Cl)cc1)C1CCN(Cc2ccc(Oc3ccccn3)cc2)CC1 (stereo not drawn) [Compound 635] | 100% | 100%
CN(C(=O)OC(c1ccc(Cl)cc1)C1CCN(Cc2ccc(Oc3ccccn3)cc2)CC1)c1ccc(C(F)(F)F)cc1 (stereo not drawn) [Compound 636] | 100% | 100%
CCN(C(=O)OC(c1ccc(Cl)cc1)C1CCN(Cc2ccc(Oc3ccccn3)cc2)CC1)c1ccc(C(F)(F)F)cc1 (stereo not drawn) [Compound 637] | 100% | 100%
COC(=O)c1cccc(NC(=O)OC(c2ccc(Cl)cc2)C2CCN(Cc3ccc(Oc4ccccn4)cc3)CC2)c1 (stereo not drawn) [Compound 638] | 100% | 100%
O=C(Nc1ccc(Cl)cc1)OC(c1ccc(F)cc1)C1CCN(Cc2ccc(Oc3ccccn3)cc2)CC1 (stereo not drawn) [Compound 639] | 100% | 100%
O=C(Nc1ccc(F)cc1)OC(c1ccc(F)cc1)C1CCN(Cc2ccc(Oc3ccccn3)cc2)CC1 (stereo not drawn) [Compound 640] | 100% | 100%
O=C(Nc1cc(F)cc(F)c1)OC(c1ccc(F)cc1)C1CCN(Cc2ccc(Oc3ccccn3)cc2)CC1 (stereo not drawn) [Compound 641] | 100% | 100%
O=C(Nc1cccc(C(F)(F)F)c1)OC(c1ccc(F)cc1)C1CCN(Cc2ccc(Oc3ccccn3)cc2)CC1 (stereo not drawn) [Compound 642] | 100% | 100%
O=C(Nc1ccc(C(F)(F)F)cc1)OC(c1ccc(F)cc1)C1CCN(Cc2ccc(Oc3ccccn3)cc2)CC1 (stereo not drawn) [Compound 643] | 100% | 100%
O=C(Nc1ccc(Cl)cc1)OC(c1ccc(Cl)c(Cl)c1)C1CCN(Cc2ccc(Oc3ccccn3)cc2)CC1 (stereo not drawn) [Compound 645] | 100% | 100%
O=C(Nc1ccc(F)cc1)OC(c1ccc(Cl)c(Cl)c1)C1CCN(Cc2ccc(Oc3ccccn3)cc2)CC1 (stereo not drawn) [Compound 646] | 100% | 100%
O=C(Nc1cc(F)cc(F)c1)OC(c1ccc(Cl)c(Cl)c1)C1CCN(Cc2ccc(Oc3ccccn3)cc2)CC1 (stereo not drawn) [Compound 647] | 100% | 100%
COc1cccc(NC(=O)OC(c2ccc(Cl)c(Cl)c2)C2CCN(Cc3ccc(Oc4ccccn4)cc3)CC2)c1 (stereo not drawn) [Compound 648] |  | 100%
O=C(Nc1cccc(C(F)(F)F)c1)OC(c1ccc(Cl)c(Cl)c1)C1CCN(Cc2ccc(Oc3ccccn3)cc2)CC1 (stereo not drawn) [Compound 650] | 100% | 100%
O=C(Nc1ccc(C(F)(F)F)cc1)OC(c1ccc(Cl)c(Cl)c1)C1CCN(Cc2ccc(Oc3ccccn3)cc2)CC1 (stereo not drawn) [Compound 651] | 100% | 100%
O=C(Nc1ccc(Cl)cc1)OC(c1cccc(C(F)(F)F)c1)C1CCN(Cc2ccc(Oc3ccccn3)cc2)CC1 (stereo not drawn) [Compound 652] | 100% | 100%
O=C(Nc1ccc(F)cc1)OC(c1cccc(C(F)(F)F)c1)C1CCN(Cc2ccc(Oc3ccccn3)cc2)CC1 (stereo not drawn) [Compound 653] | 100% | 100%
O=C(Nc1cc(F)cc(F)c1)OC(c1cccc(C(F)(F)F)c1)C1CCN(Cc2ccc(Oc3ccccn3)cc2)CC1 (stereo not drawn) [Compound 654] | 100% | 100%
O=C(Nc1cccc(C(F)(F)F)c1)OC(c1cccc(C(F)(F)F)c1)C1CCN(Cc2ccc(Oc3ccccn3)cc2)CC1 (stereo not drawn) [Compound 655] | 100% | 100%
O=C(Nc1ccc(C(F)(F)F)cc1)OC(c1cccc(C(F)(F)F)c1)C1CCN(Cc2ccc(Oc3ccccn3)cc2)CC1 (stereo not drawn) [Compound 656] | 100% | 100%
O=C(Nc1ccccc1)OC(c1ccc(C(F)(F)F)cc1)C1CCN(Cc2ccc(Oc3ccccn3)cc2)CC1 (stereo not drawn) [Compound 657] | 100% | 100%
CN(C(=O)OC(c1ccc(C(F)(F)F)cc1)C1CCN(Cc2ccc(Oc3ccccn3)cc2)CC1)c1ccccc1 (stereo not drawn) [Compound 658] | 0% | 100%
O=C(NCc1ccccc1)OC(c1ccc(C(F)(F)F)cc1)C1CCN(Cc2ccc(Oc3ccccn3)cc2)CC1 (stereo not drawn) [Compound 659] | 50% | 100%
CC(NC(=O)OC(c1ccc(C(F)(F)F)cc1)C1CCN(Cc2ccc(Oc3ccccn3)cc2)CC1)c1ccccc1 (stereo not drawn) [Compound 660] | 0% | 98%
O=C(Oc1ccccc1)OC(c1ccc(C(F)(F)F)cc1)C1CCN(Cc2ccc(Oc3ccccn3)cc2)CC1 (stereo not drawn) [Compound 661] | 0% | 91%

SMILES | Percent Mortality | Percent Growth Inhibition
O=C(Nc1ccccc1Cl)OC(c1ccc(C(F)(F)F)cc1)C1CCN(Cc2ccc(Oc3ccccn3)cc2)CC1 (stereo not drawn) [Compound 662] | 100% | 100%
O=C(NCc1ccccc1Cl)OC(c1ccc(C(F)(F)F)cc1)C1CCN(Cc2ccc(Oc3ccccn3)cc2)CC1 (stereo not drawn) [Compound 663] | 50% | 100%
O=C(Nc1cccc(Cl)c1)OC(c1ccc(C(F)(F)F)cc1)C1CCN(Cc2ccc(Oc3ccccn3)cc2)CC1 (stereo not drawn) [Compound 664] | 100% | 100%
O=C(Nc1ccc(Cl)cc1)OC(c1ccc(C(F)(F)F)cc1)C1CCN(Cc2ccc(Oc3ccccn3)cc2)CC1 (stereo not drawn) [Compound 665] | 0% | 100%
O=C(Nc1ccc(Cl)cc1)OC(c1ccc(C(F)(F)F)cc1)C1CCN(Cc2ccc(Oc3ccccn3)cc2)CC1 (stereo not drawn) [Compound 666] | 100% | 100%
FC(F)(F)c1ccc(C(OC(=S)Nc2ccc(Cl)cc2)C2CCN(Cc3ccc(Oc4ccccn4)cc3)CC2)cc1 (stereo not drawn) [Compound 667] | 100% | 100%
O=C(NS(=O)(=O)c1ccc(Cl)cc1)OC(c1ccc(C(F)(F)F)cc1)C1CCN(Cc2ccc(Oc3ccccn3)cc2)CC1 (stereo not drawn) [Compound 668] | 0% | 25%
O=C(Nc1ccc(Cl)cc1)OC(c1ccc(C(F)(F)F)cc1)C1CCN(Cc2ccc(Oc3cccc[n+]3[O-])cc2)CC1 (stereo not drawn) [Compound 669] | 100% | 100%
N#Cc1cccnc1Oc1ccc(CN2CCC(C(OC(=O)Nc3ccc(Cl)cc3)c3ccc(C(F)(F)F)cc3)CC2)cc1 (stereo not drawn) [Compound 670] | 100% | 100%
N#Cc1ccc(Oc2ccc(CN3CCC(C(OC(=O)Nc4ccc(Cl)cc4)c4ccc(C(F)(F)F)cc4)CC3)cc2)nc1 (stereo not drawn) [Compound 671] | 100% | 100%
O=C(Nc1cccc(Br)c1)OC(c1ccc(C(F)(F)F)cc1)C1CCN(Cc2ccc(Oc3ccccn3)cc2)CC1 (stereo not drawn) [Compound 672] | 100% | 100%
O=C(Nc1ccc(Br)cc1)OC(c1ccc(C(F)(F)F)cc1)C1CCN(Cc2ccc(Oc3ccccn3)cc2)CC1 (stereo not drawn) [Compound 673] | 100% | 100%
O=C(Nc1cccc(F)c1)OC(c1ccc(C(F)(F)F)cc1)C1CCN(Cc2ccc(Oc3ccccn3)cc2)CC1 (stereo not drawn) [Compound 674] | 100% | 100%
O=C(Nc1ccc(F)cc1)OC(c1ccc(C(F)(F)F)cc1)C1CCN(Cc2ccc(Oc3ccccn3)cc2)CC1 (stereo not drawn) [Compound 675] | 100% | 100%
O=C(NCc1ccc(F)cc1)OC(c1ccc(C(F)(F)F)cc1)C1CCN(Cc2ccc(Oc3ccccn3)cc2)CC1 (stereo not drawn) [Compound 676] | 100% | 100%
O=C(Nc1ccc(I)cc1)OC(c1ccc(C(F)(F)F)cc1)C1CCN(Cc2ccc(Oc3ccccn3)cc2)CC1 (stereo not drawn) [Compound 677] | 100% | 100%
O=C(NCc1ccc(Cl)cc1Cl)OC(c1ccc(C(F)(F)F)cc1)C1CCN(Cc2ccc(Oc3ccccn3)cc2)CC1 (stereo not drawn) [Compound 678] | 100% | 100%
O=C(Nc1ccc(F)cc1F)OC(c1ccc(C(F)(F)F)cc1)C1CCN(Cc2ccc(Oc3ccccn3)cc2)CC1 (stereo not drawn) [Compound 679] | 100% | 100%
O=C(Nc1cc(F)cc(F)c1)OC(c1ccc(C(F)(F)F)cc1)C1CCN(Cc2ccc(Oc3ccccn3)cc2)CC1 (stereo not drawn) [Compound 680] | 17% | 100%
Fc1cc(F)cc(NC(=S)OC(c2ccc(C(F)(F)F)cc2)C2CCN(Cc3ccc(Oc4ccccn4)cc3)CC2)c1 (stereo not drawn) [Compound 681] | 100% | 100%
O=C(Nc1cc(F)cc(F)c1)OC(c1ccc(C(F)(F)F)cc1)C1CCN(Cc2ccc(Oc3cccc[n+]3[O-])cc2)CC1 (stereo not drawn) [Compound 682] | 100% | 100%
O=C(Nc1cc(F)cc(F)c1)OC(c1ccc(C(F)(F)F)cc1)C1CCN(Cc2ccc(Oc3ncccc3Cl)cc2)CC1 (stereo not drawn) [Compound 683] | 100% | 100%
O=C(Nc1cc(F)cc(F)c1)OC(c1ccc(C(F)(F)F)cc1)C1CCN(Cc2ccc(Oc3ccc(Cl)cn3)cc2)CC1 (stereo not drawn) [Compound 684] | 100% | 100%
O=C(Nc1cc(F)cc(F)c1)OC(c1ccc(C(F)(F)F)cc1)C1CCN(Cc2ccc(Oc3cccc(Cl)n3)cc2)CC1 (stereo not drawn) [Compound 685] | 100% | 100%
O=C(Nc1cc(F)cc(F)c1)OC(c1ccc(C(F)(F)F)cc1)C1CCN(Cc2ccc(Oc3ncc(Cl)cc3Cl)cc2)CC1 (stereo not drawn) [Compound 686] | 17% | 98%

Source: patent publication US7300946B2, “N-(substituted arylmethyl)-4-(disubstituted methyl) piperidines and pyridines” (Bayer CropScience AG, priority 2002, dated 2007)
